Test results reported in US9932646B2, “Detection and use of antiviral resistance mutations” (ABL SA, priority 2006, dated 2018).
“Also recorded” adds a separate entry of the source. Counter-ions that a name gives are not always drawn.

Assays:
HBV [1] = conditions: cited from earlier work
[2] = ALT in patients during antiviral therapy; assay type: in vivo, human; conditions: Patient G, ADV therapy
HBV [3] = conditions: cited from earlier work; remark: listed apart in the source
HBV [4] = assay: Clinical response / resistance of HBV patients to nucleoside or nucleotide analog treatment; assay type: in vivo, human
Excerpt: The present invention is predicated in part on the identification and isolation of nucleoside or nucleotide analog-resistant variants of HBV following treatment of patients with either ADV or LMV or ETV or more particularly ADV and LMV or TFV and LMV, or ETV and optionally one or more other nucleoside analogs or nucleotide analogs or other anti-HBV agents such as TFV, LdT, or FTC. […] Reference herein to “decreased” or “reduced” in relation to sensitivity to ADV and/or LMV and/or FTC and/or TFV and/or ETV includes and encompasses a complete or substantial resistance to the nucleoside or nucleotide analog or other anti-HBV agents as well as partial resistance and includes a replication rate or replication efficiency which is more than a wild-type in the presence of a nucleoside or nucleotide analog or other anti-HBV agents. In one aspect, this is conveniently measured by an increase in viral load during treatment, or alternatively, there is no substantial decrease in HBV DNA viral load from pre-treatment HBV DNA levels during treatment (i.e., non-response to treatment).
Hepatitis B surface antigen (HBsAg), hepatitis B e antigen (HBeAg), anti-HBe and hepatitis B core antigen (HBcAg) specific IgG and IgM were measured using commercially available immunoassays (Abbott Laboratories, North Chicago, Ill., USA). Hepatitis B viral DNA levels were measured using a capture hybridization assay according to the manufacturer's directions (Digene Hybrid Capture II, Digene Diagnostics Inc., Beltsville, Md.). The manufacturers stated cut-off for detecting HBV viremia in clinical specimens was 0.7×10^6 copies/ml or 2.5 pg/ml, [Hendricks et al, Am J Clin Pathol 104:537-46, 1995]. HBV DNA levels can also be quantitated using other commercial kits such as Cobas amplification HBV monitor kit (Roche). […]
The specific amplified products were purified using PCR purification columns from MO BIO Laboratories Inc (La Jolla, Calif.) and directly sequenced using Big Dye terminator Cycle sequencing Ready Reaction Kit (Perkin Elmer, Cetus Norwalk, Conn.). […]

HIV = conditions: cited from earlier work

Nc1ccn([C@@H]2C[C@@H](O)[C@H](CO)O2)c(=O)n1 [LdC, beta-L-2′-deoxycytidine]
activity against HBV (HBV [1]): activity

CC(C)(C)C(=O)OCOP(=O)(COCCn1cnc2c(N)ncnc21)OCOC(=O)C(C)(C)C [ADV, adefovir dipivoxil]
ALT [2]: 467 IU/ml
clinical activity against both wild-type and lamivudine-resistant strains of HBV (HBV [3]; in vivo): demonstrated clinical activity
mean decrease in viremia (HBV [3]; phase II studies, 30 mg daily dose, over 12 weeks): 4 log10
inhibition of HBV replication (HBV [1]): potent inhibitor
response to treatment (HBV [4]; human, in vivo): resistant; also recorded: did not respond

Nc1nc(=O)n([C@@H]2CS[C@H](CO)O2)cc1F [FTC, (−)-β-L-2′-3′-dideoxy-5-fluoro-3′-thiacydidine]
activity against HIV (HIV): activity
activity against HBV (HBV [1]): activity

CC(C)OC(=O)OCOP(=O)(CO[C@H](C)Cn1cnc2c(N)ncnc21)OCOC(=O)OC(C)C [TFV, tenofovir disoproxil fumarate]
activity against HIV (HIV): antiviral activity
activity against HBV (HBV [1]): antiviral activity
inhibition of HBV replication (HBV [1]): potent inhibitor

C=C1[C@H](CO)[C@@H](O)C[C@@H]1n1cnc2c(=O)[nH]c(N)nc21 [ETV, entecavir]
response to treatment (HBV [4]; Patient H, sequential then combination treatment): resistant
response to treatment (HBV [4]; Patient J, previously treated with LMV, then ADV, then ETV): did not respond

Nc1ncnc2c1ncn2C1CC(O)C(CO)O1 [LdA, beta-L-2′-deoxyadenosine]
activity against HBV (HBV [1]): activity

Cc1cn([C@@H]2C[C@@H](O)[C@H](CO)O2)c(=O)[nH]c1=O [LdT, beta-Lthymidine]
activity against HBV (HBV [1]): activity
